# Experimental data taken from ChEMBL document CHEMBL2413072, “Synthesis and in vitro anticancer studies of novel C-2 arylidene congeners of lantadenes” (2013).
# Experiments:
# Type in all cases: functional
# HOP-92 = experiment: Growth inhibition of human HOP92 cells by sulforhodamine B assay
# CCRF-CEM = experiment: Growth inhibition of human CCRF-CEM cells assessed as cell growth at 10^-8 M by sulforhodamine B assay; settings: read-out: Activity
# M14 = experiment: Growth inhibition of human M14 cells assessed as cell growth at 10^-8 M by sulforhodamine B assay; settings: read-out: Activity
# NCI-H522 = experiment: Growth inhibition of human NCI-H522 cells assessed as cell growth at 10^-7 M by sulforhodamine B assay; settings: read-out: Activity
# U-251 = experiment: Growth inhibition of human U251 cells assessed as cell growth at 10^-7 M by sulforhodamine B assay; settings: read-out: Activity
# SF-268 = experiment: Growth inhibition of human SF268 cells assessed as cell growth at 10^-8 M by sulforhodamine B assay; settings: read-out: Activity
# ACHN = experiment: Growth inhibition of human ACHN cells by sulforhodamine B assay
# SK-MEL-5 = experiment: Growth inhibition of human SK-MEL-5 cells assessed as cell growth at 10^-7 M by sulforhodamine B assay; settings: read-out: Activity
# HL-60(TB) = experiment: Growth inhibition of human HL-60(TB) cells by sulforhodamine B assay
# MOLT-4 = experiment: Growth inhibition of human MOLT4 cells by sulforhodamine B assay
# K562 [1] = experiment: Growth inhibition of human K562 cells assessed as cell growth at 10^-8 M by sulforhodamine B assay; settings: read-out: Activity
# DU-145 = experiment: Growth inhibition of human DU145 cells assessed as cell growth at 10^-8 M by sulforhodamine B assay; settings: read-out: Activity
# RXF 393 = experiment: Growth inhibition of human RXF393 cells by sulforhodamine B assay
# UACC-257 = experiment: Growth inhibition of human UACC257 cells assessed as cell growth at 10^-7 M by sulforhodamine B assay; settings: read-out: Activity
# SF-539 = experiment: Growth inhibition of human SF539 cells assessed as cell growth at 10^-6 M by sulforhodamine B assay; settings: read-out: Activity
# NCI-H23 = experiment: Growth inhibition of human NCI-H23 cells assessed as cell growth at 10^-8 M by sulforhodamine B assay; settings: read-out: Activity
# OVCAR-5 = experiment: Growth inhibition of human OVCAR5 cells assessed as cell growth at 10^-4 M by sulforhodamine B assay; settings: read-out: Activity
# Malme-3M [2] = experiment: Growth inhibition of human MALME-3M cells assessed as cell growth at 10^-4 M by sulforhodamine B assay; settings: read-out: Activity
# MDA-MB-231 = experiment: Growth inhibition of human MDA-MB-231 cells assessed as cell growth at 10^-7 M by sulforhodamine B assay; settings: read-out: Activity
# SK-OV-3 = experiment: Growth inhibition of human SKOV3 cells assessed as cell growth at 10^-4 M by sulforhodamine B assay; settings: read-out: Activity
# [3] = Growth inhibition of human Hs 578T cells assessed as cell growth at 10^-8 M by sulforhodamine B assay; settings: read-out: Activity
# SR = experiment: Growth inhibition of human SR cells assessed as cell growth at 10^-4 M by sulforhodamine B assay; settings: read-out: Activity
# NCI-H322M [4] = experiment: Growth inhibition of human NCI-H322M cells by sulforhodamine B assay
# NCI-H226 = experiment: Growth inhibition of human NCI-H226 cells assessed as cell growth at 10^-8 M by sulforhodamine B assay; settings: read-out: Activity
# SF-295 [5] = experiment: Growth inhibition of human SF295 cells by sulforhodamine B assay
# SF-295 [6] = experiment: Growth inhibition of human SF295 cells assessed as cell growth at 10^-8 M by sulforhodamine B assay; settings: read-out: Activity
# K562 [7] = experiment: Growth inhibition of human K562 cells assessed as cell growth at 10^-4 M by sulforhodamine B assay; settings: read-out: Activity
# OVCAR-4 [8] = experiment: Growth inhibition of human OVCAR4 cells assessed as cell growth at 10^-6 M by sulforhodamine B assay; settings: read-out: Activity
# UACC-62 = experiment: Growth inhibition of human UACC62 cells assessed as cell growth at 10^-8 M by sulforhodamine B assay; settings: read-out: Activity
# LOX IMVI = experiment: Growth inhibition of human LOXIMVI cells by sulforhodamine B assay
# [9] = Growth inhibition of human NCI-ADR-RES cells assessed as cell growth at 10^-7 M by sulforhodamine B assay; settings: read-out: Activity
# KM12 = experiment: Growth inhibition of human KM12 cells assessed as cell growth at 10^-8 M by sulforhodamine B assay; settings: read-out: Activity
# OVCAR-4 [10] = experiment: Growth inhibition of human OVCAR4 cells assessed as cell growth at 10^-8 M by sulforhodamine B assay; settings: read-out: Activity
# Malme-3M [11] = experiment: Growth inhibition of human MALME-3M cells assessed as cell growth at 10^-8 M by sulforhodamine B assay; settings: read-out: Activity
# UO-31 = experiment: Growth inhibition of human UO31 cells assessed as cell growth at 10^-4 M by sulforhodamine B assay; settings: read-out: Activity
# HCT-116 [12] = experiment: Growth inhibition of human HCT116 cells assessed as cell growth at 10^-4 M by sulforhodamine B assay; settings: read-out: Activity
# HCT-116 [13] = experiment: Growth inhibition of human HCT116 cells assessed as cell growth at 10^-8 M by sulforhodamine B assay; settings: read-out: Activity
# NCI-H322M [14] = experiment: Growth inhibition of human NCI-H322M cells assessed as cell growth at 10^-7 M by sulforhodamine B assay; settings: read-out: Activity
# HCT-15 = experiment: Growth inhibition of human HCT15 cells assessed as cell growth at 10^-6 M by sulforhodamine B assay; settings: read-out: Activity
# [15] = read-out: LC50 (the source's name)
# [16] = read-out: pLC50 (the source's name) (converted)
structure (smiles),measurement,setting,value
C/C=C(/C)C(=O)O[C@@H]1CC(C)(C)C[C@H]2C3=CC[C@@H]4[C@@]5(C)CC[C@H](O)C(C)(C)[C@@H]5CC[C@@]4(C)[C@]3(C)CC[C@@]12C(=O)O [Reduced Lantadene A],GI50,HOP-92; read-out: GI50,1.41 µM
same,CC50,HOP-92; [15],6.21 µM
same,TGI,HOP-92; read-out: TGI,2.96 µM
same,GI50,HOP-92; read-out: pGI50 (converted),1.41 µM
same,CC50,HOP-92; [16],6.17 µM
same,TGI,HOP-92; read-out: pTGI (converted),2.95 µM
same,growth at 0.01 µM,CCRF-CEM,98%
same,growth at 0.01 µM,M14,100%
same,growth at 0.1 µM,NCI-H522,100%
same,growth at 0.1 µM,U-251,90%
same,growth at 0.01 µM,SF-268,101%
same,GI50,ACHN; read-out: GI50,1.82 µM
same,CC50,ACHN; [15],9.07 µM
same,TGI,ACHN; read-out: TGI,4.06 µM
same,GI50,ACHN; read-out: pGI50 (converted),1.82 µM
same,CC50,ACHN; [16],9.12 µM
same,TGI,ACHN; read-out: pTGI (converted),4.07 µM
same,growth at 0.1 µM,SK-MEL-5,92%
same,GI50,HL-60(TB); read-out: GI50,2.19 µM
same,CC50,HL-60(TB); [15],> 100 µM
same,TGI,HL-60(TB); read-out: TGI,4.9 µM
same,GI50,HL-60(TB); read-out: pGI50 (converted),2.19 µM
same,CC50,HL-60(TB); [16],> 100 µM
same,TGI,HL-60(TB); read-out: pTGI (converted),4.9 µM
same,GI50,MOLT-4; read-out: GI50,2.05 µM
same,CC50,MOLT-4; [15],> 100 µM
same,TGI,MOLT-4; read-out: TGI,5.14 µM
same,GI50,MOLT-4; read-out: pGI50 (converted),2.04 µM
same,CC50,MOLT-4; [16],> 100 µM
same,TGI,MOLT-4; read-out: pTGI (converted),5.13 µM
same,growth at 0.01 µM,K562 [1],107%
same,growth at 0.01 µM,DU-145,113%
same,GI50,RXF 393; read-out: GI50,1.77 µM
same,CC50,RXF 393; [15],8.29 µM
same,TGI,RXF 393; read-out: TGI,3.83 µM
same,GI50,RXF 393; read-out: pGI50 (converted),1.78 µM
same,CC50,RXF 393; [16],8.32 µM
same,TGI,RXF 393; read-out: pTGI (converted),3.8 µM
same,growth at 0.1 µM,UACC-257,88%
same,growth at 1 µM,SF-539,101%
same,growth at 0.01 µM,NCI-H23,101%
same,growth at 100 µM,OVCAR-5,-73%
same,growth at 100 µM,Malme-3M [2],-62%
same,growth at 0.1 µM,MDA-MB-231,95%
same,growth at 100 µM,SK-OV-3,4%
same,growth at 0.01 µM,[3],94%
same,growth at 100 µM,SR,-13%
same,GI50,NCI-H322M [4]; read-out: GI50,1.78 µM
same,LC50 (50% lethal concentration),NCI-H322M [4]; read-out: LC50,6.74 µM
same,TGI,NCI-H322M [4]; read-out: TGI,3.46 µM
same,GI50,NCI-H322M [4]; read-out: pGI50 (converted),1.78 µM
same,LC50 (50% lethal concentration),NCI-H322M [4]; read-out: pLC50 (converted),6.76 µM
same,TGI,NCI-H322M [4]; read-out: pTGI (converted),3.47 µM
same,growth at 0.01 µM,NCI-H226,91%
same,GI50,SF-295 [5]; read-out: GI50,1.62 µM
same,CC50,SF-295 [5]; [15],7.74 µM
same,TGI,SF-295 [5]; read-out: TGI,3.54 µM
same,GI50,SF-295 [5]; read-out: pGI50 (converted),1.62 µM
same,CC50,SF-295 [5]; [16],7.76 µM
same,TGI,SF-295 [5]; read-out: pTGI (converted),3.55 µM
same,growth at 0.01 µM,SF-295 [6],93%
same,growth at 100 µM,K562 [7],-2%
same,growth at 1 µM,OVCAR-4 [8],88%
same,growth at 0.01 µM,UACC-62,96%
same,GI50,LOX IMVI; read-out: GI50,3.39 µM
same,CC50,LOX IMVI; [15],66.8 µM
same,TGI,LOX IMVI; read-out: TGI,13 µM
same,GI50,LOX IMVI; read-out: pGI50 (converted),3.39 µM
same,CC50,LOX IMVI; [16],66.1 µM
same,TGI,LOX IMVI; read-out: pTGI (converted),12.9 µM
same,growth at 0.1 µM,[9],105%
same,growth at 0.01 µM,KM12,104%
same,growth at 0.01 µM,OVCAR-4 [10],97%
same,growth at 0.01 µM,Malme-3M [11],94%
same,growth at 100 µM,UO-31,-66%
same,growth at 100 µM,HCT-116 [12],-62%
same,growth at 0.01 µM,HCT-116 [13],97%
same,growth at 0.1 µM,NCI-H322M [14],98%
same,growth at 1 µM,HCT-15,82%
